Measurements: US20070259428A1, “Use of Cloud Point System in Biotransformation” (Shanghai Health Creation Center for Biopharmaceutical R&D …, priority 2003, published 2007)

Columns and labels:
[1] = footnote a: mg/L; cited from earlier work
[2] = test system: Mycobacterium sp. NRRL B 3683; assay: Screening of nonionic surfactant: biocompatibility or potential toxicity to the microorganism, by final ADD concentration in surfactant-amended transformation medium; format: cell-based; settings: high concentration of surfactant (2.0 g/100 ml), 28° C., 7 days
Method: Microbial strain, Mycobacterium sp. NRRL B 3683, is preserved in Shanghai Health Creation Center for Biopharmaceuticals R&D. It is able to remove the side chain of cholesterol, giving out ADD and 4-AD as final products, at a ratio of ca. 10:1.
Transformation medium (100 ml): (NH4)SO4 1.0 g, Na2HPO4 0.45 g, KH2PO4 0.34 g, MgSO4.7H2O 0.2 g, cholesterol 0.5 g, nonionic surfactant 2.0 g
The seed culture was grown aerobically at 28° C. at 220 r/min for 3 days with 20 ml of medium in a 250 ml Erlenmeyer flask. The seed culture was then transferred by 10% into 22 ml of transformation medium in a 250 ml Erlenmeyer flask, which was then shaken at 28° C. at 220 r/min for 7 days. A portion of the well-mixed transformation culture broth was withdrawn for analysis.
1 ml of sample was withdrawn from culture broth and extracted with 4 ml of methanol for 2 hrs, followed by centrifugation. 0.8 ml of supernatant was taken for HPLC analysis. Hypesil C18 column using methanol:water (4:1) as mobile phase, flow rate of 0.7 ml/min, and detection wavelength at 254 nm were applied.
For selecting appropriate medium of microbial transformation, biocompatibility or potential toxicity of surfactant to microorganism is critical.

[3] = cloud point; cited from earlier work
[4] = cited from earlier work
[5] = TLC analysis of distribution of substrate and product in CPS; format: physicochemical; settings: FIG. 4
Method: TLC analysis was performed to determine the distribution of substrate and products in CPS, using Silica gel 60 F254 (Merck) high-performance thin layer chromatography plates which is developed in Chloroform:ether (1:3) followed by soaking in phosphornolybdic acid solution and drying by heat. Substrate and products were separated, with their Rf values of cholesterol, a-AD and ADD being 0.62, 0.47, and 0.42, respectively.
By TLC analysis, the partition of substrate and product in CPS is viewed in FIG. 4. […] Partition of cells between the two phases is determined with hemocytometry. Its partition coefficient between the coacervate phase and the dilute phase is roughly 10, indicating the surface of Mycobacterium sp. is rather hydrophobic. This is in compliance with the report that Mycobacterium is a hydrophobic microbe.

Tween 40
CMC [1]: 29^a mg/L

Triton X-100
biocompatibility with the microorganism [2]: incompatible with the microorganism | CP [3]: 64 °C

CC(C)CCC[C@@H](C)[C@H]1CC[C@H]2[C@@H]3CC=C4C[C@@H](O)CC[C@]4(C)[C@H]3CC[C@]12C [cholesterol]
solubility in water [4]: below 1 μM

Tween 60
CMC [1]: 27^a mg/L

C[C@]12C=CC(=O)C=C1CC[C@@H]1[C@@H]2CC[C@]2(C)C(=O)CC[C@@H]12 [ADD]
partition in CPS (dilute phase vs coacervate phase) [5]: based in the coacervate phase
